± gives the expanded uncertainty stated by the source.
How the values were obtained:
[1] = refractive index (Na D-line) (dimensionless); conditions: 298.15 K; 101.33 kPa; Liquid; Standard Abbe refractometry
[2] = 101.33 kPa, Liquid, Vibrating tube method

Compound | refractive index [1] | mass density ([2]; 303.15 K) [kg/m3] | mass density ([2]; 313.15 K) [kg/m3] | mass density ([2]; 323.15 K) [kg/m3] | mass density ([2]; 333.15 K) [kg/m3] | mass density ([2]; 343.15 K) [kg/m3] | mass density ([2]; 353.15 K) [kg/m3] | mass density ([2]; 363.15 K) [kg/m3]
CCCCn1cc[n+](C)c1.F[P-](F)(F)(F)(F)F [1-butyl-3-methylimidazolium hexafluorophosphate] | 1.4106 ± 0.0005 | 1361.3 ± 1.7 | 1353 ± 1.6 | 1344.8 ± 1.6 | 1336.7 ± 1.6 | 1328.5 ± 1.6 | 1320.5 ± 1.6 | 1312.4 ± 1.5
CCOS(=O)(=O)[O-].CCn1cc[n+](C)c1 [1-ethyl-3-methylimidazolium ethyl sulfate] | 1.4106 ± 0.0005 | 1233.7 ± 1.4 | 1226.9 ± 1.3 | 1220.2 ± 1.3 | 1213.6 ± 1.3 | 1207 ± 1.3 | 1200.4 ± 1.3 | 1193.9 ± 1.3

Source: the NIST ThermoML archive (doi:10.1021/je3013414)
